Test results as given in PubChem BioAssay (NCI).
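Exposure lasted 48 hours, with cells grown in 96-well plates and compounds tested at five concentrations. GI50 marks 50% less growth. TGI is the concentration that stops growth completely.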

Tests used:
Assay in all cases: NCI-60 cell line screen, 48 h
[1] = test system: 786-0 renal
[2] = test system: DU-145 prostate
[3] = test system: RXF 393 renal
[4] = test system: NCI-H522 lung
[5] = test system: M14 melanoma
[6] = test system: EKVX NSCLC
[7] = test system: SF-539 CNS
[8] = test system: MDA-MB-231 breast
[9] = test system: NCI/ADR-RES ovarian
[10] = test system: SF-268 CNS

SMILES | TGI [1] | TGI [2] | TGI [3] | TGI [4] | TGI [5] | TGI [6] | TGI [7] | TGI [8] | TGI [9] | TGI [10] | GI50 [1] | GI50 [2] | GI50 [3] | GI50 [4] | GI50 [5] | GI50 [6] | GI50 [7] | GI50 [8] | GI50 [9] | GI50 [10]
OCC1OC(N2CCN(C3OC(CO)C(O)C(O)C3O)CC2)C(O)C(O)C1O (centres undefined) | > 100 µM | > 100 µM | > 100 µM | > 100 µM | > 100 µM | > 100 µM | > 100 µM | > 100 µM | > 100 µM | > 100 µM |  |  |  |  |  |  |  |  |  | 
Nc1[nH]c(=S)[nH]c(=O)c1N=Nc1c(Br)cc(S(N)(=O)=O)cc1Br | > 100 µM | > 100 µM | > 100 µM | > 100 µM | > 100 µM | > 100 µM | > 100 µM | > 100 µM | > 100 µM | > 100 µM |  |  |  |  |  |  |  |  |  | 
CN1CCN(CCCn2c3c(sc4ncccc43)c(=O)n3nnc(-c4ccccc4)c23)CC1 | 10.7 µM | 3.24 µM | 8.75 µM | 3.3 µM | 9.5 µM | 5.58 µM | 3.33 µM | 3.04 µM | 4.77 µM | 3.32 µM | 5.81 µM | 1.67 µM | 4.4 µM | 1.6 µM | 4.67 µM | 2.08 µM | 1.71 µM | 1.59 µM | 1.95 µM | 1.68 µM
c1ccc(OCC[P+](c2ccccc2)(c2ccccc2)c2ccccc2)cc1 | 20.8 µM | 22.8 µM | 16 µM | 3.74 µM | 9.59 µM | > 40.1 µM | 13.1 µM | 23.9 µM | > 100 µM | 13.5 µM | 5.15 µM | 2.11 µM | 4.19 µM | 0.335 µM | 1.57 µM | 0.701 µM | 1.89 µM | 2.44 µM | > 66.1 µM | 2.05 µM
Cc1cccc(Nc2ncc(-c3ccccc3)o2)c1 | > 25 µM | > 25 µM | > 25 µM | > 25 µM | > 25 µM | > 25 µM | > 25 µM | > 25 µM | > 25 µM | > 25 µM | > 25 µM | > 25 µM | > 25 µM | > 25 µM | > 25 µM | > 25 µM | > 25 µM | > 18.8 µM | > 25 µM | > 25 µM
C=C1C(=O)O[C@H]2[C@H]1CC/C(COC(=O)NCCc1ccc(Br)cc1)=C\CC[C@@]1(C)O[C@@H]21 | 2.4 µM | 2.04 µM | 2.68 µM | 2.73 µM | 2.73 µM | 3.29 µM | 2.88 µM | 3.08 µM | 6.74 µM | 3.19 µM | 1.04 µM | 0.771 µM | 1.2 µM | 1.16 µM | 1.26 µM | 1.54 µM | 1.46 µM | 1.42 µM | 2.26 µM | 1.56 µM
CC(=O)OCc1cc[c]([Hg][Cl])o1 | 13.2 µM | 26.4 µM | 17.4 µM | 2.45 µM | 13 µM | 28.2 µM | 21.2 µM | 7.81 µM | 39.1 µM | 21.8 µM | 3.88 µM | 13.6 µM | 5.12 µM | 0.709 µM | 3.11 µM | 12.4 µM | 4.97 µM | 2.59 µM | 10.8 µM | 8.78 µM
COc1cc(/C=C/[N+](=O)[O-])cc(OC)c1 | 3.31 µM | 4.03 µM | 3.27 µM | 3.14 µM | 4.48 µM | 27.1 µM | 5.56 µM | 8.48 µM | 13.6 µM | 14.9 µM | 1.74 µM | 1.97 µM | 1.75 µM | 1.39 µM | 2 µM | 4.05 µM | 2.49 µM | 2.72 µM | 3.02 µM | 3.62 µM
CCN1C(=O)N(CC)C2C1NN=c1s/c(=C\c3ccc(Br)cc3)c(=O)n12 (centres undefined) | > 100 µM | > 100 µM | > 100 µM |  | > 100 µM | > 100 µM | 5.87 µM | > 76.6 µM | > 100 µM | > 100 µM | 0.163 µM | 0.352 µM | 0.147 µM | 0.0558 µM | 0.138 µM | 0.502 µM | 0.0759 µM | 0.306 µM | 0.0626 µM | 0.852 µM
NC(=O)C1CCCN1Cc1ccc2c(c1)OCO2 (centres undefined) | > 100 µM | > 100 µM | > 100 µM | > 100 µM | > 100 µM | > 100 µM | > 100 µM | > 100 µM | > 100 µM | > 100 µM |  |  |  |  |  |  |  |  |  | 
CC1(/C=C/c2ccc(-c3ccccc3)cc2)CCn2cnc3ncnc(c32)N1O (centres undefined) | 4.49 µM | > 56.7 µM | 40.3 µM | 34 µM | 2.49 µM | > 100 µM | 5.55 µM | 63.2 µM | 28.7 µM | 15.8 µM | 0.259 µM | 0.53 µM | 0.88 µM | 0.521 µM | 0.265 µM | 0.305 µM | 0.388 µM | 0.509 µM | 0.348 µM | 0.405 µM
